Data reported in patent US8901118B2, “Compounds and methods for kinase modulation, and indications therefor” (Plexxikon Inc., priority 2010, dated 2014).

Columns and labels:
BCR-FMS BaF3 cells = molecular target: T1, BCR-FMS BaF3 cells (Homo sapiens, UniProt P07333); assay: BaF3 BCR-FMS cell proliferation assay (ATPlite); format: cell-based; conditions: read-out: Inhibition of Cell Proliferation IC50, BCR/BaF3 Fms
T1 construct: fused on or other part: P11274 (Breakpoint cluster region protein)
T1 sequence (P07333 582-910): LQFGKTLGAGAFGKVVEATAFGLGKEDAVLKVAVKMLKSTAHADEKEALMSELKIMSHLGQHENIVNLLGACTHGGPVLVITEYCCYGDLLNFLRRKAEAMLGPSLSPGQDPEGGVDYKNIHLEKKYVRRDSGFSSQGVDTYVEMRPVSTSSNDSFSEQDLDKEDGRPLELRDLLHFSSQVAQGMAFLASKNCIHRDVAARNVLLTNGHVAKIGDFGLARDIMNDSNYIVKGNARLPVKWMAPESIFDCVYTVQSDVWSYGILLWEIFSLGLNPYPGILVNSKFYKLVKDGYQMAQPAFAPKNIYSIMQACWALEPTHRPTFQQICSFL
How it was run: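 ATP-based luminescence (ATPlite), read after 10 min at room temperature, served as a proxy for cell number, and IC50 was fitted against compound concentration. Before that, cells were treated for 3 days with an 8-point 1:3 dilution series starting at 10 μM. BaF3 cells were plated at 10,000/well without IL-3, and MV-4-11 cells at 25,000/well.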

CYP2C19 = CYP2C19 (Homo sapiens, UniProt P33261); assay: CYP2C19 inhibition (fluorescent substrate CEC); format: in vitro ADME; conditions: read-out: Cyp IC50 2C19
Sequence of CYP2C19 (P33261 whole entry): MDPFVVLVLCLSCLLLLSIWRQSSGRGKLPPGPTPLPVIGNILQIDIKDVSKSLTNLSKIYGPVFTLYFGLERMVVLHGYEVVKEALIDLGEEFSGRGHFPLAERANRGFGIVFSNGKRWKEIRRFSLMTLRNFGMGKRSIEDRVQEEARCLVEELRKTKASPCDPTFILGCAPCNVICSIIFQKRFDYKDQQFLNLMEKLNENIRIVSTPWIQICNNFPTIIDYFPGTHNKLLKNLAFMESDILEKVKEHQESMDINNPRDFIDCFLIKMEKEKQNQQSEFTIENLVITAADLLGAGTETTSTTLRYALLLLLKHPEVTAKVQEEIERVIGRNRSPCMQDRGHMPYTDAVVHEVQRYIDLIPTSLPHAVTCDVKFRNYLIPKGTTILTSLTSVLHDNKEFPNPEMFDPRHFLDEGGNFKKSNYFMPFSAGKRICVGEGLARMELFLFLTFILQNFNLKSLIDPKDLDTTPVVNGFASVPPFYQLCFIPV
How it was run: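 Compounds, serially diluted 1:1 over 10 points in NADPH-regenerating cofactor mix with 5% acetonitrile, were preincubated 10 min at 37 °C, then run with enzyme and substrate at 37 °C (CYP1A2 15 min; CYP2C9 45 min; CYP2C19, CYP2D6 30 min). Product fluorescence gave IC50s.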

Structure (SMILES)	IC50 (BCR-FMS BaF3 cells)	IC50 (CYP2C19)
Clc1cnc2[nH]cc(Cc3cnc(NC4CCCCC4)nc3)c2c1 [Compound P-3001, [5-(5-chloro-1H-pyrrolo[2,3-b]pyridin-3-ylmethyl)-pyrimidin-2-yl]-cyclohexyl-amine]	< 100 nM	> 10000 nM
Clc1cnc2[nH]cc(Cc3cnc(NC4CCCC4)nc3)c2c1 [Compound P-3003, [5-(5-Chloro-1H-pyrrolo[2,3-b]pyridin-3-ylmethyl)-pyrimidin-2-yl]-cyclopentyl-amine]	< 1000 nM	
Clc1cnc2[nH]cc(Cc3cnc(NC4CC4)nc3)c2c1 [Compound P-3005, [5-(5-Chloro-1H-pyrrolo[2,3-b]pyridin-3-ylmethyl)-pyrimidin-2-yl]-cyclopropyl-amine]	< 1000 nM	
COc1ccccc1Nc1ncc(Cc2c[nH]c3ncc(Cl)cc23)cn1 [Compound P-3016, [5-(5-Chloro-1H-pyrrolo[2,3-b]pyridin-3-ylmethyl)-pyrimidin-2-yl]-(2-methoxy-phenyl)-amine]	< 1000 nM	
Fc1cccc(Nc2ncc(Cc3c[nH]c4ncc(Cl)cc34)cn2)c1 [Compound P-3017, [5-(5-Chloro-1H-pyrrolo[2,3-b]pyridin-3-ylmethyl)-pyrimidin-2-yl]-(3-fluoro-phenyl)-amine]	< 1000 nM	
COc1ccc(Nc2ncc(Cc3c[nH]c4ncc(C)cc34)cn2)cn1 [Compound P-3020, (6-Methoxy-pyridin-3-yl)-[5-(5-methyl-1H-pyrrolo[2,3-b]pyridin-3-ylmethyl)-pyrimidin-2-yl]-amine]	< 10 nM	
COc1ccc(Nc2ncc(Cc3c[nH]c4ncc(C)cc34)cn2)cc1 [Compound P-3021, (4-Methoxy-phenyl)-[5-(5-methyl-1H-pyrrolo[2,3-b]pyridin-3-ylmethyl)-pyrimidin-2-yl]-amine]	< 10 nM	
COc1cc(Nc2ncc(Cc3c[nH]c4ncc(C)cc34)cn2)ccc1F [Compound P-3022, (4-Fluoro-3-methoxy-phenyl)-[5-(5-methyl-1H-pyrrolo[2,3-b]pyridin-3-ylmethyl)-pyrimidin-2-yl]-amine]	< 100 nM	
COc1ccc(Nc2ncc(Cc3c[nH]c4ncc(C)cc34)cn2)cc1F [Compound P-3023, (3-Fluoro-4-methoxy-phenyl)-[5-(5-methyl-1H-pyrrolo[2,3-b]pyridin-3-ylmethyl)-pyrimidin-2-yl]-amine]	< 100 nM	
CCCOc1ccc(Nc2ncc(Cc3c[nH]c4ncc(C)cc34)cn2)cc1 [Compound P-3024, [5-(5-Methyl-1H-pyrrolo[2,3-b]pyridin-3-ylmethyl)-pyrimidin-2-yl]-(4-propoxy-phenyl)-amine]	< 10 nM	
CCc1ccc(Nc2ncc(Cc3c[nH]c4ncc(C)cc34)cn2)cc1 [Compound P-3025, (4-Ethyl-phenyl)-[5-(5-methyl-1H-pyrrolo[2,3-b]pyridin-3-ylmethyl)-pyrimidin-2-yl]-amine]	< 10 nM	
CCOc1ccc(Nc2ncc(Cc3c[nH]c4ncc(C)cc34)cn2)cc1 [Compound P-3026, (4-Ethoxy-phenyl)-[5-(5-methyl-1H-pyrrolo[2,3-b]pyridin-3-ylmethyl)-pyrimidin-2-yl]-amine]	< 10 nM	
CCOc1ccc(Nc2ncc(Cc3c[nH]c4ncc(C)cc34)cn2)cn1 [Compound P-3027, (6-Ethoxy-pyridin-3-yl)-[5-(5-methyl-1H-pyrrolo[2,3-b]pyridin-3-ylmethyl)-pyrimidin-2-yl]-amine]	< 10 nM	
Cc1cnc2[nH]cc(Cc3cnc(Nc4cc(-c5ccc(F)cc5)n[nH]4)nc3)c2c1 [Compound P-3028, [5-(4-Fluoro-phenyl)-2H-pyrazol-3-yl]-[5-(5-methyl-1H-pyrrolo[2,3-b]pyridin-3-ylmethyl)-pyrimidin-2-yl]-amine]	< 1000 nM	
Cc1cnc2[nH]cc(Cc3cnc(Nc4cc(C(C)(C)C)n[nH]4)nc3)c2c1 [Compound P-3029, (5-tert-Butyl-2H-pyrazol-3-yl)-[5-(5-methyl-1H-pyrrolo[2,3-b]pyridin-3-ylmethyl)-pyrimidin-2-yl]-amine]	< 100 nM	
Cc1cnc2[nH]cc(Cc3cnc(Nc4ccc(C(C)(C)C)cc4)nc3)c2c1 [Compound P-3030, (4-tert-Butyl-phenyl)-[5-(5-methyl-1H-pyrrolo[2,3-b]pyridin-3-ylmethyl)-pyrimidin-2-yl]-amine amine]	< 10 nM	
Cc1cnc2[nH]cc(Cc3cnc(Nc4ccc(C(O)(C(F)(F)F)C(F)(F)F)cc4)nc3)c2c1 [Compound P-3031, 1,1,1,3,3,3-Hexafluoro-2-{4-[5-(5-methyl-1H-pyrrolo[2,3-b]pyridin-3-ylmethyl)-pyrimidin-2-ylamino]-phenyl}-propan-2-ol]	< 10 nM	

Structure (SMILES)	IC50 (BCR-FMS BaF3 cells)	IC50 (CYP2C19)
Cc1cnc2[nH]cc(Cc3cnc(Nc4cc(C5CC5)n[nH]4)nc3)c2c1 [Compound P-3032, (5-Cyclopropyl-2H-pyrazol-3-yl)-[5-(5-methyl-1H-pyrrolo[2,3-b]pyridin-3-ylmethyl)-pyrimidin-2-yl]-amine]	< 1000 nM	
CSc1ccc(Nc2ncc(Cc3c[nH]c4ncc(C)cc34)cn2)cc1 [Compound P-3033, [5-(5-Methyl-1H-pyrrolo[2,3-b]pyridin-3-ylmethyl)-pyrimidin-2-yl]-(4-methylsulfanyl-phenyl)-amine]	< 10 nM	
Cc1cnc2[nH]cc(Cc3cnc(Nc4ccc(S(C)(=O)=O)cc4)nc3)c2c1 [Compound P-3034, (4-Methanesulfonyl-phenyl)-[5-(5-methyl-1H-pyrrolo[2,3-b]pyridin-3-ylmethyl)-pyrimidin-2-yl]-amine]	< 10 nM	
CCn1ccc(Nc2ncc(Cc3c[nH]c4ncc(C)cc34)cn2)n1 [Compound P-3035, (1-Ethyl-1H-pyrazol-3-yl)-[5-(5-methyl-1H-pyrrolo[2,3-b]pyridin-3-ylmethyl)-pyrimidin-2-yl]-amine]	< 100 nM	
CCn1cc(Nc2ncc(Cc3c[nH]c4ncc(C)cc34)cn2)cn1 [Compound P-3036, (1-Ethyl-1H-pyrazol-4-yl)-[5-(5-methyl-1H-pyrrolo[2,3-b]pyridin-3-ylmethyl)-pyrimidin-2-yl]-amine]	< 10 nM	
Cc1cnc2[nH]cc(Cc3cnc(Nc4cc(C(F)(F)F)n[nH]4)nc3)c2c1 [Compound P-3037, [5-(5-Methyl-1H-pyrrolo[2,3-b]pyridin-3-ylmethyl)-pyrimidin-2-yl]-(5-trifluoromethyl-2H-pyrazol-3-yl)-amine]	> 1000 nM	
Cc1cnc2[nH]cc(Cc3cnc(Nc4cc(OC(C)C)n[nH]4)nc3)c2c1 [Compound P-3038, (5-Isopropoxy-2H-pyrazol-3-yl)-[5-(5-methyl-1H-pyrrolo[2,3-b]pyridin-3-ylmethyl)-pyrimidin-2-yl]-amine]	< 1000 nM	
Cc1ccc(Nc2ccc(Cc3c[nH]c4ncc(Cl)cc34)c(F)n2)cn1 [Compound P-3042, [5-(5-Chloro-1H-pyrrolo[2,3-b]pyridin-3-ylmethyl)-6-fluoro-pyridin-2-yl]-(6-methyl-pyridin-3-yl)-amine]	< 100 nM	
CCOc1ccc(Nc2ccc(C(=O)c3c[nH]c4ncc(C)cc34)c(F)n2)cn1 [Compound P-3045, [6-(6-ethoxy-pyridin-3-ylamino)-2-fluoro-pyridin-3-yl]-(5-methyl-1H-pyrrolo[2,3-b]pyridin-3-yl)-methanone]	< 100 nM	
CCOc1ncnc2[nH]cc(Cc3ccc(Nc4ccc(Br)nc4)nc3F)c12 [Compound P-4020, (6-Bromo-pyridin-3-yl)-[5-(4-ethoxy-7H-pyrrolo[2,3-d]pyrimidin-5-ylmethyl)-6-fluoro-pyridin-2-yl]-amine]	< 100 nM	
CCOc1ncnc2[nH]cc(Cc3ccc(Nc4cccnc4)nc3F)c12 [Compound P-4021, [5-(4-Ethoxy-7H-pyrrolo[2,3-d]pyrimidin-5-ylmethyl)-6-fluoro-pyridin-2-yl]-pyridin-3-yl-amine]	< 1000 nM	
CCOc1ccc(Nc2ccc(Cc3c[nH]c4ncnc(C5CC5)c34)c(F)n2)cn1 [Compound P-4026, [5-(4-Cyclopropyl-7H-pyrrolo[2,3-d]pyrimidin-5-ylmethyl)-6-fluoro-pyridin-2-yl]-(6-ethoxy-pyridin-3-yl)-amine]	< 10 nM	
CCOc1ccc(Nc2ccc(C(=O)c3c[nH]c4ncnc(C5CC5)c34)c(F)n2)cn1 [Compound P-4027, (4-Cyclopropyl-7H-pyrrolo[2,3-d]pyrimidin-5-yl)-[6-(6-ethoxy-pyridin-3-ylamino)-2-fluoro-pyridin-3-yl]-methanone]	< 100 nM	
CCOc1ccc(Nc2ccc(C(=O)c3c[nH]c4ncnc(C)c34)c(F)n2)cn1 [Compound P-4032, [6-(6-Ethoxy-pyridin-3-ylamino)-2-fluoro-pyridin-3-yl]-(4-methyl-7H-pyrrolo[2,3-d]pyrimidin-5-yl)-methanone]	< 100 nM	
Cc1cncc(Nc2ccc(Cc3c[nH]c4ncnc(C5CC5)c34)c(F)n2)c1 [Compound P-4038, [5-(4-Cyclopropyl-7H-pyrrolo[2,3-d]pyrimidin-5-ylmethyl)-6-fluoro-pyridin-2-yl]-(5-methyl-pyridin-3-yl)-amine]	< 100 nM	
Cc1cncc(Nc2ccc(C(=O)c3c[nH]c4ncnc(C5CC5)c34)c(F)n2)c1 [Compound P-4039, (4-Cyclopropyl-7H-pyrrolo[2,3-d]pyrimidin-5-yl)-[2-fluoro-6-(5-methyl-pyridin-3-ylamino)-pyridin-3-yl]-methanone]	< 100 nM	
